Laboratory results taken from patent US9987286B2, “Compositions and methods for the treatment of addiction, psychiatric disorders, and neurodegenerative disease” (Embera NeuroTherapeutics, Inc., priority 2010, dated 2018).

Key:
[1] = tested on: cocaine self-administration in rats; assay: Cocaine self-administration in rats, metyrapol (Example 5); type: in vivo, Adult male Wistar rats; conditions: metyrapol 25, 50, 100, 150 mg/kg ip 30 minutes before session; cocaine 0.125, 0.25 and 0.5 mg/kg/infusion
Protocol: (§1) We conducted the following experiment to explore the possibility that metyrapol would decrease cocaine self-administration in an animal model. Adult male Wistar rats were trained to respond under a 2-hour multiple, alternating schedule of food reinforcement and cocaine self-administration (fixed-ratio 4) during alternating 15-minute periods. Prior to testing, the rats were exposed to multiple saline substitution and food extinction probes. On test days, rats were pretreated 30 minutes prior to the start of the behavioral session with metyrapol (25, 50, 100, and 150 mg/kg, ip.) or vehicle. Subjects were initially trained and tested with 0.25 mg/kg/infusion of cocaine and, subsequently, with 0.125 and 0.5 mg/kg/infusion.

[2] = tested on: food-maintained responding in rats; assay: Food-maintained responding in rats, metyrapol (Example 5); type: in vivo, Adult male Wistar rats; conditions: metyrapol 25, 50, 100, 150 mg/kg ip
Protocol: as §1

[3] = tested on: cocaine self-administration in rats; assay: Ongoing cocaine self-administration in rats (earlier experiments); type: in vivo, rat; conditions: pretreatment with the single drug
Source text: We then reduced the dose by one-half until we found a dose of each drug that no longer affected cocaine self-administration or any other observable behaviors (i.e., an ineffective dose). When we then combined the ineffective doses of the two drugs, cocaine self-administration was reduced. […] Thus, we concluded that combining drugs that affect the HPA axis through different mechanisms can produce an additive effect on cocaine reward. Furthermore, by combining these drugs at concentrations that have no effect when the drugs are administered alone, we can minimize the potential toxic side effects (e.g., excessive decreases in plasma cortisol with metyrapone and the abuse liability of benzodiazepines) that may be associated with these compounds. Accordingly, the compositions of the present invention may include combinations of therapeutic agents, one or both of which are present at a dosage level lower than that which would be required to achieve an effect had the agent been administered alone; the dosages may be additive.

plasma corticosterone = assay: Plasma corticosterone in rats (earlier experiments); type: in vivo, rat; conditions: pretreatment with metyrapone
[4] = tested on: cocaine self-administration in rats; assay: Cocaine self-administration before and after adrenalectomy, alternating schedule of cocaine and food reinforcement (Example 1); type: in vivo, Male Wistar rats; conditions: rats after bilateral adrenalectomy
Protocol: Male Wistar rats were housed in an AALAC-approved animal care facility and maintained at 85-90% of their free-feeding body weights. These rats were on a reversed 12-hour light, 12-hour dark cycle from the beginning of the experimental procedures.
A chronic indwelling jugular catheter (0.012 in i.d.×0.025 in o.d., silicone tubing) was implanted in each rat under pentobarbital anesthesia (50 mg/kg ip) with methyl atropine nitrate pretreatment (10 mg/kg ip). The animals were injected with sterile penicillin G procaine suspension (75,000 units, im) immediately before surgery and allowed 5-7 days to recover.
Animals were anesthetized with pentobarbital (50 mg/kg ip) with methyl atropine nitrate pretreatment (10 mg/kg ip). The adrenal glands were located through an incision and removed. The animals were injected with sterile penicillin G procaine suspension (75,000 units, im) and allowed to recover from surgery for 7 days. After ADX, the rats received drinking water containing 0.9% saline and 1.0% sucrose. Animals in the SHAM group received the same surgery except that the adrenal glands were not removed. They continued to receive tap water to drink.
Sound-attenuating operant conditioning chambers (Med-Associates, Inc.) were equipped with two response levers and a stimulus light located directly above each lever. A food pellet dispenser was located between the levers. […]

plasma CORT = assay: Plasma CORT radioimmunoassay (Example 1); type: in vivo, Male Wistar rats; conditions: rats before adrenalectomy; any of the doses
Source text: (§2) Blood was collected via the implanted catheters at the end of the behavioral test sessions for the measurement of plasma CORT and […] (ACTH). The samples were kept on ice until centrifuged in a refrigerated centrifuge and the plasma collected and frozen until assayed. Plasma CORT and ACTH (ng/ml) were subsequently determined by radioimmunoassay.

ACTH = assay: Plasma ACTH radioimmunoassay (Example 1); type: in vivo, Male Wistar rats; conditions: rats before adrenalectomy; any of the doses
Source text: as §2

[5] = tested on: nicotine self-administration in rats; assay: Intravenous nicotine self-administration, fixed-ratio schedule (Example 3); type: in vivo, Wistar-derived male rats; conditions: FR1-TO-20 s; varenicline 1 mg/kg subcutaneously; reduced from 15.4±1.0
Protocol: Wistar-derived male rats (250-300 g) were purchased from Harlan Laboratories (Livermore, Calif.), housed in groups of two, and maintained in a temperature-controlled environment on a 12 h:12 h light cycle. Before testing, animals were provided free access to food and water during a one-week habituation period, and were handled daily for several days to desensitize them to handling stress. Each rat included in the data analysis received all treatments in order to obtain reliable estimates of drug effects and decrease the impact of inter-animal variability.
Varenicline-HCl (Ontario Chemicals), at 1 mg/kg (expressed as free base), was used as a positive control and administered subcutaneously. Nicotine hydrogen tartrate (Sigma Aldrich) was dissolved in isotonic saline at 0.3 mg/mL (expressed as free base), adjusted to pH 7.0, and diluted to deliver 0.03 mg/kg/infusion. All test compounds were administered 30 minutes prior to nicotine self-administration sessions in a volume of 1 mL/kg.
Food training and nicotine self-administration took place in 8 standard COULBOURN® operant conditioning chambers. Each chamber was housed in a sound-attenuating chamber. Operant chambers were equipped with two levers mounted 2 cm above the floor and a cue light mounted 2 cm above the right lever (active lever) on the back wall of the chamber. […]

smoking cessation = conditions: cited from earlier work

## CC(C)(c1cccnc1)C(O)c1cccnc1 (stereo not shown) [metyrapol]
[1]
  cocaine self-administration: dose dependently decreased
[2]
  food-maintained responding: not significantly affected except at the highest doses

## CC(C)(C(=O)c1cccnc1)c1cccnc1 [metyrapone]
[3]
  ongoing cocaine self-administration: significant dose-related decreases
Plasma corticosterone
  plasma corticosterone: significant dose-related decreases
[4]
  blocking cocaine self-administration following adrenalectomy compared to pre-adrenalectomy values: as effective, and possibly even more effective
Plasma CORT
  Corticosterone (plasma): not changed
ACTH
  ACTH (plasma): not changed

## c1cnc2cc3c(cc2n1)[C@@H]1CNC[C@H]3C1 [varenicline]
[5]
  nicotine infusions during the 1-hour self-administration session: 7.7±1.2 infusions
Smoking cessation; literature reports
  efficacy for smoking cessation compared to either bupropion or nicotine replacement therapy: increased efficacy
Smoking cessation; smoking cessation, Nides et al. 2006
  quit rates after one year: 14%
